In patent US10227376B2, “Radiolabeled cationic steroid antimicrobials and diagnostic methods” (BRIGHAM YOUNG UNIVERSITY, priority 2014, dated 2019):

Experiment: Stability of labeled compounds in human serum
Type: in vitro ADME
Details: 64Cu labeled compound, four hours, 37 degrees C., 500 rpm incubation
Protocol: Stability of the labeled CSA-150 and CSA-151 compounds of Example 1 was measured. The labeled compounds were placed in human serum for four hours at 37 degrees C. at 500 rpm incubation.

In the case of `CCCCCCCCN(CCCC(C)[C@H]1CC[C@H]2[C@@H]3[C@H](OCCCNC(C)=O)C[C@@H]4C[C@H](OCCCNC(C)=O)CC[C@]4(C)[C@H]3C[C@H](OCCCNC(C)=O)[C@]12C)C(=O)NCCOCCOCCOCCOCCNC(=O)CN1CCN(CC(=O)O)CCN(CC(=O)O)CC1` (stereo partly shown) (64Cu complex, metal not drawn) [CSA-151], the “Stability of the labeled compound (% stable)” value was 100%.
